From ChEMBL document CHEMBL1140120, “Discovery of biphenyl piperazines as novel and long acting muscarinic acetylcholine receptor antagonists” (J Med Chem, 2008)
Converted amounts (≈) assume the structure as drawn. The source made the active and inactive calls. No cut-off for these calls is given here.

Columns and labels:
[1] = biological target: T1, Muscarinic acetylcholine receptor M1 (Homo sapiens, UniProt P11229); test: Antagonist activity at cloned muscarinic M1 receptor expressed in CHO cells assessed as acetylcholine-induced change in cytosolic calcium concentration by FLIPR assay; type: functional, cell-based; details: read-out: pA2 (converted)
T1 sequence (P11229 whole entry): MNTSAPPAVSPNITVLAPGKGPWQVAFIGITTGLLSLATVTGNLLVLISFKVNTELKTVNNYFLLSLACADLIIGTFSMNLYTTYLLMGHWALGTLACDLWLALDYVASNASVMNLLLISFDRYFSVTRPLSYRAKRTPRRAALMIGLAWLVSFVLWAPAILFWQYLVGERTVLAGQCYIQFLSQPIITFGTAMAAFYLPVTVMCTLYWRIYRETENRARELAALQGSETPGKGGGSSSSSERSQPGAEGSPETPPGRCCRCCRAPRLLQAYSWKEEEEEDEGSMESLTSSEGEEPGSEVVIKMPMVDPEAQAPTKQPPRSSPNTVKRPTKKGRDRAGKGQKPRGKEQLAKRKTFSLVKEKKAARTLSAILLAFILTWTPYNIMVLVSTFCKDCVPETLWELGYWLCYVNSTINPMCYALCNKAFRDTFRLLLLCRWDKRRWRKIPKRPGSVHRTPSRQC

[2] = biological target: T2, Muscarinic acetylcholine receptor M2 (Homo sapiens, UniProt P08172); test: Antagonist activity at cloned muscarinic M2 receptor-Gqi5 chimeric protein expressed in CHO cells assessed as acetylcholine-induced change in cytosolic calcium concentration by FLIPR assay; type: functional, cell-based; details: read-out: pA2 (converted)
T2 sequence (P08172 whole entry): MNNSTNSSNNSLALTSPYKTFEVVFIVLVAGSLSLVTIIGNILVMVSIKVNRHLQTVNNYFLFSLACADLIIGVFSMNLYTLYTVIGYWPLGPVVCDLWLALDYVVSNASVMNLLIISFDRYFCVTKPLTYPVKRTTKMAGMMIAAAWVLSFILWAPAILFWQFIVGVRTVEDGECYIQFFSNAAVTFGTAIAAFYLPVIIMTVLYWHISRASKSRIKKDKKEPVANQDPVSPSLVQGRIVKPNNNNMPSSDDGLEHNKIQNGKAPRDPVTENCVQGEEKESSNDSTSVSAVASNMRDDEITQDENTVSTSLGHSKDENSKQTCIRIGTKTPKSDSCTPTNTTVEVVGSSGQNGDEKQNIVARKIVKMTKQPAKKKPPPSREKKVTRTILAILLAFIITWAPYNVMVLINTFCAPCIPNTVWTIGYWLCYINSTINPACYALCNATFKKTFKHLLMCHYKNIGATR

[3] = biological target: T3, Muscarinic acetylcholine receptor M3 (Homo sapiens, UniProt P20309); test: Antagonist activity at cloned muscarinic M3 receptor expressed in CHO cells assessed as acetylcholine-induced change in cytosolic calcium concentration by FLIPR assay; type: functional, cell-based; details: read-out: pA2 (converted)
Target sequence in this assay (P20309 whole entry): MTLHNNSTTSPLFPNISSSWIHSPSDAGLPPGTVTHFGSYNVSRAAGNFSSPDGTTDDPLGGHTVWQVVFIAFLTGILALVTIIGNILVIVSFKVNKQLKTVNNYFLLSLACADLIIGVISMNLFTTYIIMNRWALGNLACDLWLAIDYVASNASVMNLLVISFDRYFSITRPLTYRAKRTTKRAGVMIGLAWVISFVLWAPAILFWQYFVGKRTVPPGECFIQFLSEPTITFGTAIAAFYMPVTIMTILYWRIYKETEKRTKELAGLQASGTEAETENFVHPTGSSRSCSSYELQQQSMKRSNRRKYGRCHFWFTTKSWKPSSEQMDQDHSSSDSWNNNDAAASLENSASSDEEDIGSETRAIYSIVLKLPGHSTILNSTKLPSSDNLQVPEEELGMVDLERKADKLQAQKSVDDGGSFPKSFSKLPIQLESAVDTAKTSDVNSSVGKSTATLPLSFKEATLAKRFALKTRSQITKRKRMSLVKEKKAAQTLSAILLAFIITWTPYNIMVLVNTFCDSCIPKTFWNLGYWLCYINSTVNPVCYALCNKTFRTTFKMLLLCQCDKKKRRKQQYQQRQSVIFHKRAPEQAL

Mus musculus [4] = test: Inhibition of methacholine-induced bronchoconstriction in intranasally single dosed conscious BALB/c mouse assessed by measuring enhanced pause at 5 ug after 48 hrs by barometric plethysmography relative to control; type: functional
Cytochrome P450 3A4 = Cytochrome P450 3A4 (Homo sapiens, UniProt P08684); test: Inhibition of CYP3A4; type: ADME
Chain of Cytochrome P450 3A4 (P08684 whole entry): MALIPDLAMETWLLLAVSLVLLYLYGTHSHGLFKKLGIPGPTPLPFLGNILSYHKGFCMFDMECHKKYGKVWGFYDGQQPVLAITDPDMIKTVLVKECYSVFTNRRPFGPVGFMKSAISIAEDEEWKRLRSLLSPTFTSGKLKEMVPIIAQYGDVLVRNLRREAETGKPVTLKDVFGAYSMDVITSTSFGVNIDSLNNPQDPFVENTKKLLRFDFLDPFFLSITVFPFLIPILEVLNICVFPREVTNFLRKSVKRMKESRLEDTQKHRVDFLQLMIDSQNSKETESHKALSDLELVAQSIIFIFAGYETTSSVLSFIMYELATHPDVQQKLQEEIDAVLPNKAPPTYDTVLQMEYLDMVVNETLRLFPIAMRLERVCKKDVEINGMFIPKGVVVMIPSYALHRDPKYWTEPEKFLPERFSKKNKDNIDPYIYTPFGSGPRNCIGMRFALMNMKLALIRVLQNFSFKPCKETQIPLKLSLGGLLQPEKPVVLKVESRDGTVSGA

[5] = biological target: T3, Muscarinic acetylcholine receptor M3; test: Displacement of [3H]N-methyl Scopolamine from human cloned muscarinic M3 receptor expressed in CHO cells by scintillation proximity assay; type: cell-based
Target sequence in this assay (P20309 whole entry): as the sequence (P20309 whole entry) above

[6] = Permeability across artificial phospholipid membrane; type: ADME; details: not told; read-out: permeability
Cytochrome P450 2D6 = Cytochrome P450 2D6 (Homo sapiens, UniProt P10635); test: Inhibition of CYP2D6; type: ADME
Chain of Cytochrome P450 2D6 (P10635 whole entry): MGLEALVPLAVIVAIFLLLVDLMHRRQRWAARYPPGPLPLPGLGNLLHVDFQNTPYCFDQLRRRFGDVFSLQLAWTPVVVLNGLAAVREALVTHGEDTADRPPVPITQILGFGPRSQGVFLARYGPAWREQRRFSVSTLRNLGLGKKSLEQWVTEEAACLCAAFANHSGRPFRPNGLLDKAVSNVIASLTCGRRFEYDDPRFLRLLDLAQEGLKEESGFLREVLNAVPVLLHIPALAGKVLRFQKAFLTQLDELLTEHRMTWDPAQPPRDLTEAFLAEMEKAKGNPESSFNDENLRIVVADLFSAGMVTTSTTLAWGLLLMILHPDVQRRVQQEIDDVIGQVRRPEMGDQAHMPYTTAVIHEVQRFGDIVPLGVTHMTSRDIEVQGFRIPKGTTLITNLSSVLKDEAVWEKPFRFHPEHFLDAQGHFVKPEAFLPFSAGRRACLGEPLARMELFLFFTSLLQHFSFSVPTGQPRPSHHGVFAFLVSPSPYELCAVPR

[7] = Inhibition of opioid receptor at 10 uM
Cytochrome P450 2C19 = Cytochrome P450 2C19 (Homo sapiens, UniProt P33261); test: Inhibition of CYP2C19; type: ADME
Chain of Cytochrome P450 2C19 (P33261 whole entry): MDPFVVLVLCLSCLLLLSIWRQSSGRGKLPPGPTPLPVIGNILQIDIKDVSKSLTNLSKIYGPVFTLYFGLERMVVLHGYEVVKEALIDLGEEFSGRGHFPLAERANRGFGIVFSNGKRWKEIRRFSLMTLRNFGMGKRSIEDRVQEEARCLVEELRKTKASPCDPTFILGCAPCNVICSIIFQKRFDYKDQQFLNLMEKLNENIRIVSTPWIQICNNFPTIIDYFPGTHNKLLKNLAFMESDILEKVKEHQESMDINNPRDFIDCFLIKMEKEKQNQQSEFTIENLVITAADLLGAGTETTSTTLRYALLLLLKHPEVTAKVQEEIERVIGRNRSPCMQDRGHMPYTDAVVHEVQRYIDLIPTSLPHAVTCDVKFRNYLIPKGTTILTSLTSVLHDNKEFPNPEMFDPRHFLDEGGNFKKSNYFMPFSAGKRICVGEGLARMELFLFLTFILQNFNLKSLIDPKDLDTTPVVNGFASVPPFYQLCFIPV

Mus musculus [8] = test: Inhibition of methacholine-induced bronchoconstriction in intranasally single dosed conscious BALB/c mouse assessed by measuring enhanced pause at 5 ug after 24 hrs by barometric plethysmography relative to control; type: functional
[9] = Aqueous solubility of the compound; type: physicochemical; details: buffer
[10] = biological target: Voltage-gated inwardly rectifying potassium channel KCNH2 (Homo sapiens, UniProt Q12809); test: Inhibition of human ERG
Chain of Voltage-gated inwardly rectifying potassium channel KCNH2 (Q12809 whole entry): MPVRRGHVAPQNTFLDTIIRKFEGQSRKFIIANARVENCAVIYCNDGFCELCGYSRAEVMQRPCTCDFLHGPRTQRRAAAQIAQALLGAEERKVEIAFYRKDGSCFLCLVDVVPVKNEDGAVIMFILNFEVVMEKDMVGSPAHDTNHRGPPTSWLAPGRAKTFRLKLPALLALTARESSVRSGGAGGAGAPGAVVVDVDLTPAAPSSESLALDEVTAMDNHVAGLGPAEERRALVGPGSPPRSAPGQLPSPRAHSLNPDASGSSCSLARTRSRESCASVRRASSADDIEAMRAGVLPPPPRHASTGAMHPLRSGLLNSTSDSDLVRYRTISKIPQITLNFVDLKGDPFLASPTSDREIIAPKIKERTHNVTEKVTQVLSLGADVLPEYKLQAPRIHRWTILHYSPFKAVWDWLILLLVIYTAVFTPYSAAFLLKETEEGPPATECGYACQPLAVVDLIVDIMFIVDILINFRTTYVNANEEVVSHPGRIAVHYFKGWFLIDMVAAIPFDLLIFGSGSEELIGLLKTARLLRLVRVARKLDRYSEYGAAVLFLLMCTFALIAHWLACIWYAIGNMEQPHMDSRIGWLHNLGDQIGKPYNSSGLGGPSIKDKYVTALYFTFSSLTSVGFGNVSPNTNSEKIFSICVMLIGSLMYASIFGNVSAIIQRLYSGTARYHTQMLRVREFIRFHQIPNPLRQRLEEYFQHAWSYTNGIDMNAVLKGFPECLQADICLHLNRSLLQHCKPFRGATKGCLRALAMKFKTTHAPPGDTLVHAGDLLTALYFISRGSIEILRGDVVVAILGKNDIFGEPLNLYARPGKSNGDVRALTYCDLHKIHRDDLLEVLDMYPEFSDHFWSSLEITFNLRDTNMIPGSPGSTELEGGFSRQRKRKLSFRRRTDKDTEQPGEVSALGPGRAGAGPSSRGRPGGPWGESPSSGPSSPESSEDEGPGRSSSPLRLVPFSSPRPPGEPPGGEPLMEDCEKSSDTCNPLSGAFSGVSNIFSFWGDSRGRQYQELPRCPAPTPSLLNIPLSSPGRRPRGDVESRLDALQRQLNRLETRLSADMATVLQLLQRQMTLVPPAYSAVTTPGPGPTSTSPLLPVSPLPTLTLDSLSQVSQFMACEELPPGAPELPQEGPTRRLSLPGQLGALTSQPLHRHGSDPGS

Mus musculus [11] = test: Inhibition of methacholine-induced bronchoconstriction in intranasally single dosed conscious BALB/c mouse assessed by measuring enhanced pause at 5 ug after 15 mins by barometric plethysmography relative to control; type: functional
Cytochrome P450 1A2 = biological target: T4, Cytochrome P450 1A2 (Homo sapiens, UniProt P05177); test: Inhibition of CYP1A2; type: ADME
T4 sequence (P05177 whole entry): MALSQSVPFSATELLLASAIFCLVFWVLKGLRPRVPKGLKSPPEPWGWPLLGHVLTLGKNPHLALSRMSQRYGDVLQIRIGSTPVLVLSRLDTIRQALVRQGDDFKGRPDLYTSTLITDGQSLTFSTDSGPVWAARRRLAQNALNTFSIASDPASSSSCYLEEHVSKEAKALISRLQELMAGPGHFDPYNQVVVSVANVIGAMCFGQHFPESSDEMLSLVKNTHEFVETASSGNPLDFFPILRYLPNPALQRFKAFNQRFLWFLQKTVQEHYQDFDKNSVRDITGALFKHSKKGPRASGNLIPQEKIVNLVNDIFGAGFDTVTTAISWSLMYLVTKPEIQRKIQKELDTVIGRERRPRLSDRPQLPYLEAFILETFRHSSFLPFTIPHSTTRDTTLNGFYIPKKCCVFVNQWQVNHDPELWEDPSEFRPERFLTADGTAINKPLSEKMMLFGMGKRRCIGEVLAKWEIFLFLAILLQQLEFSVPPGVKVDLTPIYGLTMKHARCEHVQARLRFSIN

[12] = Inhibition of serotonin receptor at 10 uM
[13] = Inhibition of alpha adrenergic receptor at 10 uM
Cytochrome P450 2C9 = Cytochrome P450 2C9 (Homo sapiens, UniProt P11712); test: Inhibition of CYP2C9; type: ADME
Chain of Cytochrome P450 2C9 (P11712 whole entry): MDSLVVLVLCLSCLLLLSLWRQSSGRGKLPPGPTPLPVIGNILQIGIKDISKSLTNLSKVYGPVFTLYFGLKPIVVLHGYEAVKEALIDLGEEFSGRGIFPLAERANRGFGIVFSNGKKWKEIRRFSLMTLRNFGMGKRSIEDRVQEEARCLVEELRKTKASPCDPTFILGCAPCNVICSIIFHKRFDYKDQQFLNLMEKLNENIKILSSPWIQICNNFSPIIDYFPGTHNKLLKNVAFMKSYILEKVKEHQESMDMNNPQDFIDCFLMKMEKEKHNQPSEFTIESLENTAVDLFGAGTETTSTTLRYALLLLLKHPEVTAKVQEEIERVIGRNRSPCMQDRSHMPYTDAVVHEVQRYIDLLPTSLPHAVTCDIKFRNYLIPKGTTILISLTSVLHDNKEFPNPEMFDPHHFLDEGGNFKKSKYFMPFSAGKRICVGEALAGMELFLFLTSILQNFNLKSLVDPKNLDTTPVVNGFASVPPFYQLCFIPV

Mus musculus [14] = test: Inhibition of methacholine-induced bronchoconstriction in intranasally single dosed conscious BALB/c mouse assessed by measuring enhanced pause at 5 ug after 5 hrs by barometric plethysmography relative to control; type: functional
[15] = biological target: Muscarinic acetylcholine receptor M1 and M3 (Homo sapiens) (UniProt P20309+P11229); test: Selectivity for human cloned muscarinic M3 receptor over human cloned muscarinic M1 receptor
Chain of Muscarinic acetylcholine receptor M1 and M3 (Homo sapiens) (P20309 whole entry, looked up, one chain of several): as the sequence (P20309 whole entry) above

[16] = biological target: Muscarinic acetylcholine receptors; M2 & M3 (Homo sapiens) (UniProt P20309+P08172); test: Selectivity for human cloned muscarinic M3 receptor over human cloned muscarinic M2 receptor
Chain of Muscarinic acetylcholine receptors; M2 & M3 (Homo sapiens) (P20309 whole entry, looked up, one chain of several): as the sequence (P20309 whole entry) above

[17] = biological target: T3, Muscarinic acetylcholine receptor M3; details: CHO
Target sequence in this assay (P20309 whole entry, looked up): as the sequence (P20309 whole entry) above
Description: Antagonist activity at cloned muscarinic M3 receptor expressed in CHO cells assessed as acetylcholine-induced change in cytosolic calcium concentration pretreated for 30 mins by FLIPR assay

Mus musculus [18] = test: Inhibition of methacholine-induced bronchoconstriction in intranasally single dosed conscious BALB/c mouse assessed by measuring enhanced pause at 5 ug after 72 hrs by barometric plethysmography relative to control; type: functional
[19] = biological target: T1, Muscarinic acetylcholine receptor M1; test: Inhibition of human cloned muscarinic M1 expressed in CHO cells by FLIPR assay; type: cell-based
[20] = biological target: T2, Muscarinic acetylcholine receptor M2; test: Inhibition of human cloned muscarinic M2 receptor-Gqi5 chimeric protein expressed in CHO cells by FLIPR assay; type: cell-based
[21] = biological target: T3, Muscarinic acetylcholine receptor M3; test: Inhibition of human cloned muscarinic M3 receptor expressed in CHO cells by FLIPR assay; type: cell-based
Target sequence in this assay (P20309 whole entry): as above

| Compound | Kb [1] | Kb [2] | Kb [3] | Ratio [15] | Ratio [16] | inhibition (INH) (Mus musculus [14]) | further results |
| --- | --- | --- | --- | --- | --- | --- | --- |
| CC(=O)c1cccc(C(=O)NCc2ccc(F)c(-c3cccc(CN4CCN[C@@H](C)C4)c3)c2)c1 | 2.51 nM | 100 nM | 0.0501 nM | 50 | 2000 | 45% | Activity (Mus musculus [11]): Active |
| O=C(NCc1cccc(-c2cccc(CN3CCNCC3)c2)c1)c1ccc2c(c1)OCO2 | – | – | – | 5 | 100 | – | IC50 [19]: 158 nM; IC50 [20]: > 3160 nM; IC50 [21]: 31.6 nM |
| CCC(=O)c1cccc(C(=O)NCc2ccc(F)c(-c3cccc(CN4CCN[C@@H](C)C4)c3)c2)c1 | 1 nM | 25.1 nM | 0.0501 nM | – | – | 20% | Activity (Mus musculus [11]): Active |
| C[C@H]1CN(Cc2cccc(-c3cc(CNC(=O)c4cccc(CN5CC[N+](C)(C)CC5)c4)ccc3F)c2)CCN1.O=C([O-])C(F)(F)F | 2 nM | 12.6 nM | – | – | 80 | 85% | Activity (Mus musculus [8]): inactive; inhibition (INH) (Mus musculus [11]): 95% |

Continued, in another order:

| Kb [1] | Kb [2] | Kb [3] | Ratio [15] | Ratio [16] | Compound | inhibition (INH) (Mus musculus [14]) | further results |
| --- | --- | --- | --- | --- | --- | --- | --- |
| 7.94 nM | 316 nM | 0.251 nM | – | – | C[C@H]1CN(Cc2cccc(-c3cc(CNC(=O)c4cccc(C#N)c4)ccc3F)c2)CCN1 | – | – |
| 2.51 nM | 5.01 nM | 0.01 nM | 20 | 500 | C[C@H]1CN(Cc2cccc(-c3cc(CNC(=O)c4cccc(CC5CCNCC5)c4)ccc3F)c2)CCN1 | 94% | inhibition (INH) (Mus musculus [4]): 25%; IC50 (Cytochrome P450 3A4): > 10000 nM; Ki [5]: 0.0316 nM; Papp [6]: < 3 nm/s; IC50 (Cytochrome P450 2D6): > 10000 nM; inhibition [7]: 70%; IC50 (Cytochrome P450 2C19): > 10000 nM; inhibition (INH) (Mus musculus [8]): 40%; solubility [9]: 200 µM (≈ 103 µg/mL); IC50 [10]: 10000 nM; inhibition (INH) (Mus musculus [11]): 96%; IC50 (Cytochrome P450 1A2): > 10000 nM; inhibition [12]: 70%; inhibition [13]: 70%; IC50 (Cytochrome P450 2C9): > 10000 nM; pKb [17]: 10.5; inhibition (INH) (Mus musculus [18]): 25% |
| 1 nM | 63.1 nM | 0.158 nM | 6 | 400 | C[C@H]1CN(Cc2cccc(-c3cc(CNC(=O)c4cccc(CN5CCNCC5)c4)ccc3F)c2)CCN1 | – | – |
